Experimental data taken from patent US11033547B2, “Carboxamide-pyrimidine derivatives as SHP2 antagonists” (Merck Patent GmbH, priority 2019, dated 2021).
Structures can show the parent of a compound that is named as a salt.

target: Full length SHP2 protein (Recombinant Human SHP-2) (Homo sapiens, UniProt Q06124); test: SHP2 biochemical assay (DiFMUP substrate, activating peptide IRSI_2pY); conditions: DiFMUP substrate, activating peptide IRSI_2pY, 60 min at RT; read-out: SHP-2 Biochemical assay IC50
Method: The inhibition of SHP2 by compounds of the invention was monitored using the surrogate substrate DiFMUP after protein activation by a peptide bearing two appropriately spaced phosphotyrosine. […] The generation of the DiFMU product by activated SHP2 was monitored through Fluorescence measurement with a PerkinElmer Envision reader.
The inhibitor dose response curves were analyzed with Genedata Screener.

Chain of Full length SHP2 protein (Recombinant Human SHP-2) (Q06124 2-593 limits assumed): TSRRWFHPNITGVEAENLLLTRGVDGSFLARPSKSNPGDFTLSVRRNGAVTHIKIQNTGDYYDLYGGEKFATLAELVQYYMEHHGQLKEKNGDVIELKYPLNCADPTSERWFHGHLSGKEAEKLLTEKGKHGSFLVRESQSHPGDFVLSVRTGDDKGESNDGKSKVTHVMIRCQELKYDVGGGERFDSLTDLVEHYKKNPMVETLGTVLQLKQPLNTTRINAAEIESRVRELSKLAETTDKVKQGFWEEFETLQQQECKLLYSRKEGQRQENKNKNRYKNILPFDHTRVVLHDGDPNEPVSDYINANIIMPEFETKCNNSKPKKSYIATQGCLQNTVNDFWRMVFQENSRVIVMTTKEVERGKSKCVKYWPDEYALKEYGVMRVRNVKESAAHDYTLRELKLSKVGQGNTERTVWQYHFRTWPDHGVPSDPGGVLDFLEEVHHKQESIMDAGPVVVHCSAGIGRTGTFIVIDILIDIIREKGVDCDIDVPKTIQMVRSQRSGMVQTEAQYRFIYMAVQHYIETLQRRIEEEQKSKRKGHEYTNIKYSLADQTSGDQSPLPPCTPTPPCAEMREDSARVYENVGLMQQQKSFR

SMILES | IC50
NC(=O)c1nc(N[C@@H]2CCNC[C@@H]2F)nc(N)c1-c1cccc(Cl)c1Cl (atropisomer, axis not shown; (M)) [Compound 64, (5M)-6-amino-5-(2,3-dichlorophenyl)-2-{[(3S,4R)-3-fluoropiperidin-4-yl]amino}-pyrimidine-4-carboxamide] | 10 µM
NC(=O)c1nc(N2CCC(N)(C(F)F)CC2)nc(N)c1-c1cccc(Cl)c1Cl (atropisomer, axis not shown; (M)) [Compound 107, (5M)-6-amino-2-[4-amino-4-(difluoromethyl)piperidin-1-yl]-5-(2,3-dichlorophenyl)-pyrimidine-4-carboxamide] | 3.2 µM
Cc1nc(N2CCC3(CCC[C@H]3N)C2)nc(C(N)=O)c1-c1cccc(Cl)c1Cl (stereo in doubt) [Compound 35, 2-((R)-6-Amino-2-aza-spiro[4.4]non-2-yl)-5-(2,3-dichloro-phenyl)-6-methyl-pyrimidine-4-carboxylic acid amide] | 1.1 µM
NCC1CN(c2nc(N)c(-c3cccc(Cl)c3Cl)c(C(N)=O)n2)CC12CCOCC2 (stereo not drawn) [Compound 23, 6-amino-2-[4-(aminomethyl)-8-oxa-2-azaspiro[4.5]decan-2-yl]-5-(2,3-dichlorophenyl)pyrimidine-4-carboxamide] | 4.7 µM
CC1(N)CCN(c2nc(O)c(-c3cccc(F)c3)c(C(N)=O)n2)CC1 [Compound 25, 2-(4-amino-4-methylpiperidin-1-yl)-5-(3-fluorophenyl)-6-hydroxypyrimidine-4-carboxamide hydrochloride] | > 10 µM
NC(=O)c1nc(N2CCC(N)(C(F)F)CC2)nc(N)c1-c1cccc(Cl)c1Cl (atropisomer, axis not shown; (P)) [Compound 106, (5P)-6-amino-2-[4-amino-4-(difluoromethyl)piperidin-1-yl]-5-(2,3-dichlorophenyl)-pyrimidine-4-carboxamide] | 15 µM
Cc1nc(N2C[C@@H]3CCC(N)[C@H]3C2)nc(C(N)=O)c1-c1cccc(Cl)c1Cl (stereo partly drawn) [Compound 76, 2-((3aR,6aR)-4-Amino-hexahydro-cyclopenta-[c]pyrrol-2-yl)-5-(2,3-dichloro-phenyl)-6-methyl-pyrimidine-4-carboxylic acid amide] | 1 µM
NC(=O)c1nc(NC2CCOC3(C2)CN2CCC3CC2)nc(N)c1-c1cccc(Cl)c1Cl (stereo not drawn) [Compound 52, 6-amino-2-({4-azaspiro[bicyclo[2.2.2]octane-2,2′-oxan]-4′-yl}amino)-5-(2,3-dichlorophenyl)pyrimidine-4-carboxamide] | > 10 µM
Cc1nc(N[C@H]2CCC[C@@H](N)C2)nc(C(N)=O)c1-c1cccc(Cl)c1Cl (atropisomer, axis not shown; (P)) [Compound 90, (4P)-2-{[(1S,3R)-3-aminocyclohexyl]amino}-5-(2,3-dichlorophenyl)-6-methylpyrimidine-4-carboxamide] | > 10 µM
NC(=O)c1nc(N2C[C@H]3CCCCC[C@@H](C2)C3N)nc(N)c1-c1cccc(Cl)c1Cl (single isomer, unassigned) [Compound 14] | 8.8 µM
Cc1nc(N[C@H]2CCC[C@@H](N)C2)nc(C(N)=O)c1-c1cccc(Cl)c1Cl (atropisomer, axis not shown; (M)) [Compound 87, (4M)-2-{[(1S,3R)-3-aminocyclohexyl]amino}-5-(2,3-dichlorophenyl)-6-methylpyrimidine-4-carboxamide] | 1.2 µM
CC1(N)CCN(c2nc(N)c(-c3cccc(Cl)c3Cl)c(C(=O)NCCO)n2)CC1 [Compound 17, 6-Amino-2-(4-amino-4-methyl-piperidin-1-yl)-5-(2,3-dichlorophenyl)-pyrimidine-4-carboxylic acid (2-hydroxy-ethyl)-amide] | 12 µM
CC1(N)CCN(c2ncc(-c3cccc4nonc34)c(C(N)=O)n2)CC1 [Compound 61, 2-(4-Amino-4-methyl-piperidin-1-yl)-5-benzo[1,2,5]-oxadiazol-4-yl-pyrimidine-4-carboxylic acid amide] | > 10 µM
Cc1nc(N2C[C@@H]3CC[C@H](N)[C@@H]3C2)nc(C(N)=O)c1-c1cccc(Cl)c1Cl [Compound 74, 2-((3aS,4S,6aR)-4-Amino-hexahydro-cyclopenta-[c]pyrrol-2-yl)-5-(2,3-dichloro-phenyl)-6-methyl-pyrimidine-4-carboxylic acid amide] | > 10 µM
CC1(N)CCN(c2nc(Cl)c(-c3cccc(Cl)c3Cl)c(C(N)=O)n2)CC1 (atropisomer, axis not shown; (M)) [Compound 78, (4M)-2-(4-amino-4-methylpiperidin-1-yl)-6-chloro-5-(2,3-dichlorophenyl)-pyrimidine-4-carboxamide] | 1.4 µM
Cc1nc(N2CCOC[C@@H]2CN)nc(C(N)=O)c1-c1cccc(Cl)c1Cl (atropisomer, axis not shown; (P)) [Compound 48, (4P)-2-[(3S)-3-(aminomethyl)morpholin-4-yl]-5-(2,3-dichlorophenyl)-6-methylpyrimidine-4-carboxamide] | > 10 µM
Cc1nc(N2CCC3(CC2)Oc2ncccc2[C@@H]3N)nc(C(N)=O)c1-c1cccc(Cl)c1Cl [Compound 125, (4M)-2-[(3S)-3-amino-3H-spiro[furo[2,3-b]pyridine-2,4′-piperidin]-1′-yl]-5-(2,3-dichlorophenyl)-6-methylpyrimidine-4-carboxamide] | 0.53 µM

SMILES | IC50
NC[C@@H]1[C@H]2CN(c3nc(N)c(-c4cccc(Cl)c4Cl)c(C(N)=O)n3)C[C@@H]12 [Compound 70, 6-amino-2-[(1R,5S,6R)-6-(aminomethyI)-3-azabicyclo-[3.1.0]hexan-3-yl]-5-(2,3-dichlorophenyl)pyrimidine-4-carboxamide] | 5.3 µM
NC(=O)c1nc(N2C[C@H]3CCCCC[C@@H](C2)[C@@H]3N)nc(N)c1-c1cccc(Cl)c1Cl [Compound 13, 6-amino-5-(2,3-dichlorophenyl)-2-[(1R,7S,11s)-11-amino-9-azabicyclo[5.3.1]undecan-9-yl]pyrimidine-4-carboxamide] | > 10 µM
COc1c(F)ccc(-c2c(C)nc(N3CCC(C)(N)CC3)nc2C(N)=O)c1Cl (atropisomer, axis not shown; (M)) [Compound 115, (4M)-2-(4-amino-4-methylpiperidin-1-yl)-5-(2-chloro-4-fluoro-3-methoxyphenyl)-6-methylpyrimidine-4-carboxamide] | 0.57 µM
CC(C)C1N(c2nc(N)c(-c3cccc(Cl)c3Cl)c(C(N)=O)n2)CC12CC(N)C(O)C2 (stereo not drawn) [Compound 10, 6-amino-2-[6-amino-7-hydroxy-1-(propan-2-yl)-2-azaspiro[3.4]octan-2-yl]-5-(2,3-dichlorophenyl)pyrimidine-4-carboxamide] | 9.6 µM
Cc1nc(N2C[C@H](N)[C@@H](O)C2)nc(C(N)=O)c1-c1cccc(Cl)c1Cl [Compound 84, 2-((3S,4S)-3-Amino-4-hydroxy-pyrrolidin-1-yl)-5-(2,3-dichloro-phenyl)-6-methyl-pyrimidine-4-carboxylic acid amide] | 6.3 µM
Cc1nc(N2CCC3CCC(C2)N3)nc(C(N)=O)c1-c1cccc(Cl)c1Cl (stereo not drawn) [Compound 68, 2-(3,9-Diaza-bicyclo[4.2.1]-non-3-yl)-5-(2,3-dichloro-phenyl)-6-methyl-pyrimidine-4-carboxylic acid amide] | 6.2 µM
Cc1nc(N2C[C@@H](N)[C@@H](O)C2)nc(C(N)=O)c1-c1cccc(Cl)c1Cl [Compound 80, 2-((3R,4S)-3-Amino-4-hydroxy-pyrrolidin-1-yl)-5-(2,3-dichloro-phenyl)-6-methyl-pyrimidine-4-carboxylic acid amide] | 5.3 µM
NC(=O)c1nc(N[C@@H]2CCCC[C@@H]2N)nc(N)c1-c1cccc(Cl)c1Cl [Compound 65, 6-amino-2-{[(1R,2S)-2-aminocyclohexyl]amino}-5-(2,3-dichlorophenyl)-pyrimidine-4-carboxamide] | 3.7 µM
Cc1nc(N2CCC3(CCC[C@H]3N)CC2)nc(C(N)=O)c1-c1cccc(Cl)c1Cl (single isomer, unassigned) [Compound 113] | 0.66 µM
NC(=O)c1nc(N2CC3CCCC(C2)C3N)nc(N)c1-c1cccc(Cl)c1Cl (stereo not drawn) [Compound 6, 6-amino-2-{9-amino-3-azabicyclo[3.3.1]nonan-3-yl}-5-(2,3-dichlorophenyl)pyrimidine-4-carboxamide] | 2.7 µM
Cc1nc(N2CC(N)(CO)C2)nc(C(N)=O)c1-c1cccc(Cl)c1Cl [Compound 57, 2-(3-Amino-3-hydroxymethyl-azetidin-1-yl)-5-(2,3-dichloro-phenyl)-6-methyl-pyrimidine-4-carboxylic acid amide] | > 10 µM
CC1(N)CCN(c2nc(N)c(-c3cccc(Cl)c3Cl)c(C(=O)NN)n2)CC1 [Compound 21, 6-Amino-2-(4-amino-4-methyl-piperidin-1-yl)-5-(2,3-dichlorophenyl)-pyrimidine-4-carboxylic Acid Hydrazide] | 1.6 µM
Cc1nc(N2CCC(C)(N)CC2)nc(C(N)=O)c1-c1cccc(Cl)c1Cl (atropisomer, axis not shown; (P)) [Compound 31, (4P)-2-(4-amino-4-methylpiperidin-1-yl)-5-(2,3-dichlorophenyl)-6-methylpyrimidine-4-carboxamide] | 7.9 µM
CC1(N)CCN(c2nc(F)c(-c3cccc(F)c3)c(C(N)=O)n2)CC1 [Compound 22, 2-(4-Amino-4-methyl-piperidin-1-yl)-6-fluoro-5-(3-fluorophenyl)-pyrimidine-4-carboxylic Acid Amide] | 21 µM
Cc1nc(N2C[C@H]3CC[C@H](N)[C@H]3C2)nc(C(N)=O)c1-c1cccc(Cl)c1Cl [Compound 77, 2-((3aR,4S,6aS)-4-Amino-hexahydro-cyclopenta-[c]pyrrol-2-yl)-5-(2,3-dichloro-phenyl)-6-methyl-pyrimidine-4-carboxylic acid amide] | > 10 µM
Cc1nc(N2CCC(C)(N)CC2)nc(C(N)=O)c1-c1ccc(F)cc1Cl [Compound 82, 2-(4-Amino-4-methyl-piperidin-1-yl)-5-(2-chloro-4-fluoro-phenyl)-6-methyl-pyrimidine-4-carboxylic acid amide] | 2 µM
